Read-outs that look alike come from different tables or passages of the source. One block for each molecule: values may come before it.
Assays:
HsIMPDH1 = target: T1, HsIMPDH1 (Homo sapiens, UniProt P20839); experiment: IMPDH activity assay and enzyme kinetics, HsIMPDH1; type: biochemical; details: for α (substrate–inhibitor heterotropic cooperative interaction) / β (fractional activity of the ternary enzyme–substrate-inhibitor complex): mixed inhibition model; for effect on catalytic activity: ATP with or without 5 mM MgCl2
T1 construct: His8 (modified pET15b vector, TEV site) (N); made in house
Experimental: (§1) IMPDH activity was assayed by monitoring the reduction of NAD^+ to NADH and the subsequent increase in absorbance at 340 nm in buffer: 100 mM Tris-HCl, 100 mM KCl, 2 mM DTT pH 8.0. […] When Mg^+2 was included in the reaction, the total concentration of MgCl2 was 5 mM. The experimental data were fitted to the Michaelis–Menten equation of enzyme kinetics using the OriginPro software (OriginLab Corporation), to obtain the maximum apparent initial velocity (Vmax^app) and the apparent Michaelis–Menten constant (KM^app):
(§2) Following this equation, the global nonlinear regression analysis of Vmax^app and KM^app, as a function of the inhibitor concentration, allowed the intrinsic Michaelis–Menten constant (KM) and inhibition constant (Ki) for competitive inhibition to be determined. The substrate–inhibitor heterotropic cooperative interaction and the fractional activity of the ternary enzyme–substrate–inhibitor complex, α and β respectively, were estimated using a mixed inhibition model:
(§3) The constant α reflects the effect of the inhibitor on the apparent affinity of the enzyme for the substrate.

HsIMPDH2 = target: T2, HsIMPDH2 (Homo sapiens, UniProt P12268); experiment: IMPDH activity assay and enzyme kinetics, HsIMPDH2; type: biochemical; details: for α (substrate–inhibitor heterotropic cooperative interaction) / β (fractional activity of the ternary enzyme–substrate-inhibitor complex): mixed inhibition model; for effect on catalytic activity: ATP with or without 5 mM MgCl2
T2 construct: His8 (modified pET15b vector, TEV site) (N); made in house
Experimental: as §1, §2, §3

EcIMPDH = target: T3, EcIMPDH (Escherichia coli, UniProt P0ADG7); experiment: biochemical; type: biochemical; details: for effect on catalytic activity: ATP with or without 5 mM MgCl2
T3 construct: His8 (TEV site) (N, cleaved yes); made in house; host or cells: E. coli BL21 (DE3)
Experimental: as §1, §2, §3

BsIMPDH = target: T4, BsIMPDH (Bacillus subtilis, UniProt P21879); experiment: biochemical; type: biochemical, Bacillus subtillis; details: for effect on catalytic activity: ATP with or without 5 mM MgCl2
T4 construct: His8 (TEV site) (N, cleaved yes); made in house; host or cells: E. coli BL21 (DE3)
Experimental: as §1, §2, §3

AgIMPDH [1] = target: T5, AgIMPDH (Eremothecium gossypii, UniProt Q756Z6); experiment: IMPDH activity assay and enzyme kinetics (NADH absorbance at 340 nm), AgIMPDH; type: biochemical, A. gossypii; details: for α (substrate–inhibitor heterotropic cooperative interaction) / β (fractional activity of the ternary enzyme–substrate-inhibitor complex): mixed inhibition model; for effect on AgIMPDH catalytic activity in vitro: adenine nucleotides
Experimental: as §1, §2, §3

AgIMPDH ΔBateman = experiment: IMPDH activity assay, mutant lacking the Bateman domain; type: biochemical, A. gossypii; details: 2 mM nucleotide
Experimental: as §1, with “(KM^app): […]” for “(KM^app):”

AgIMPDH-ΔBateman = AgIMPDH-ΔBateman (Eremothecium gossypii, UniProt Q756Z6, DEL116-235/INS115SQDG); experiment: Isothermal titration calorimetry, AgIMPDH-ΔBateman; type: binding, A. gossypii
Experimental: (§4) Standard ITC experiments were performed using an AutoITC200 system (Malvern Instruments). […] The resulting heats were integrated and fitted to a single binding site model implemented in the software package Origin (OriginLab Corporation).

AgIMPDH [2] = target: T5, AgIMPDH; experiment: biochemical
Experimental: as §4

AgIMPDH [3] = target: T5, AgIMPDH; details: GMP titration, WT
Experimental: as §4

T3 sequence (P0ADG7 whole entry): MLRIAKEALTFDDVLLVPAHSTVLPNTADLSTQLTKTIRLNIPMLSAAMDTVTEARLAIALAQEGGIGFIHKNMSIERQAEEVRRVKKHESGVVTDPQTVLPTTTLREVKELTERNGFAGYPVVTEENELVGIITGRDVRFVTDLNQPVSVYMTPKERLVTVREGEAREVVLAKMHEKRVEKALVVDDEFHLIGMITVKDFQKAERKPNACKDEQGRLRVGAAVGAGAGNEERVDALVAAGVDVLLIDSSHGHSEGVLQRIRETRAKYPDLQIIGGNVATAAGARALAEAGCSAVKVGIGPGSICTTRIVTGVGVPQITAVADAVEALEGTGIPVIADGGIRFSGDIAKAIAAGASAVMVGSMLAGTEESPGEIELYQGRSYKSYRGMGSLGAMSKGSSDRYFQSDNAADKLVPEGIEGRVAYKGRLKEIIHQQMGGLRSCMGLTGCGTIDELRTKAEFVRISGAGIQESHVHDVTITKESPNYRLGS
T4 sequence (P21879 whole entry): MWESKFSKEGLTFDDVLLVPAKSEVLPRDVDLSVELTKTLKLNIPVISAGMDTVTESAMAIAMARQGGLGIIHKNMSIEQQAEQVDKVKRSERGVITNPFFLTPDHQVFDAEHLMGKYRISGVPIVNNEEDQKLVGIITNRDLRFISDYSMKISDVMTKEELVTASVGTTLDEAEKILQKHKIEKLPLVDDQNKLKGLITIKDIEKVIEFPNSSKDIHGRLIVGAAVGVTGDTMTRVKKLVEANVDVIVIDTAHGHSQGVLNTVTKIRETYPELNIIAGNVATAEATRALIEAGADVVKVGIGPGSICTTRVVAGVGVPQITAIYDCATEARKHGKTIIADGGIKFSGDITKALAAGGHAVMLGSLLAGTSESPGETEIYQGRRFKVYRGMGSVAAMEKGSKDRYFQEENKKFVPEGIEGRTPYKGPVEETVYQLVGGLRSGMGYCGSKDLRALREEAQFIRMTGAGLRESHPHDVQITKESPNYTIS
T1 sequence (P20839 whole entry): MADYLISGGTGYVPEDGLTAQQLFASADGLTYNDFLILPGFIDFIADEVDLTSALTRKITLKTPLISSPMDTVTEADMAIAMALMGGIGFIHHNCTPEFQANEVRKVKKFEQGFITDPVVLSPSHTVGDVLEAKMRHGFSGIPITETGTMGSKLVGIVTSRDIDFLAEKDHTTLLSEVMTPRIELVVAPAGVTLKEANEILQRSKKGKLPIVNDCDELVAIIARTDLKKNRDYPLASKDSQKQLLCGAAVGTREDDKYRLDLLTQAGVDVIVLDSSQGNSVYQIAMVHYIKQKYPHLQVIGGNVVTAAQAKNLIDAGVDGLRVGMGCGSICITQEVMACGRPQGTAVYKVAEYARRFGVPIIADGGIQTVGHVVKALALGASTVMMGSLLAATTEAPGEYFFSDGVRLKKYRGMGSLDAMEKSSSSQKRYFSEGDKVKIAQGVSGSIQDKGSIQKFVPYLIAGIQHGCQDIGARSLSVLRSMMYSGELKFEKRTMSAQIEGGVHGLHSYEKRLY

SMILES: Nc1nc2c(ncn2[C@@H]2O[C@H](COP(=O)(O)OP(=O)(O)OP(=O)(O)O)[C@@H](O)[C@H]2O)c(=O)[nH]1 [GTP, guanosine-5′-triphosphate]
Inhibition (type) (HsIMPDH1): Mixed type
Ki (HsIMPDH1): 540 ± 60 µM
α (substrate–inhibitor heterotropic cooperative interaction) (HsIMPDH1): 3.8±0.5
β (fractional activity of the ternary enzyme–substrate-inhibitor complex) (HsIMPDH1): 0.11±0.04
Inhibition (type) (HsIMPDH2): Mixed type
Ki (HsIMPDH2): 480 ± 60 µM
α (substrate–inhibitor heterotropic cooperative interaction) (HsIMPDH2): 3.0±0.4
β (fractional activity of the ternary enzyme–substrate-inhibitor complex) (HsIMPDH2): 0.51±0.08
Inhibition (type) (EcIMPDH): Competitive
Inhibition (type) (BsIMPDH): No
Inhibition (type) (AgIMPDH [1]): Mixed type
α (substrate–inhibitor heterotropic cooperative interaction) (AgIMPDH [1]): 4.1±0.7
β (fractional activity of the ternary enzyme–substrate-inhibitor complex) (AgIMPDH [1]): 0.24±0.05
Ki (AgIMPDH [1]; read-out: Ki): 160 ± 40 µM
effect on enzymatic activity of ΔBateman mutant (KM app/KM) (AgIMPDH ΔBateman): not significantly affected

SMILES: Nc1nc2c(ncn2[C@@H]2O[C@H](COP(=O)(O)O)[C@@H](O)[C@H]2O)c(=O)[nH]1 [GMP, guanosine-5′-monophosphate]
Inhibition (type) (HsIMPDH1): Competitive
Inhibition (type) (HsIMPDH2): Competitive
Kd (AgIMPDH-ΔBateman): 22 µM
n (binding stoichiometry) (AgIMPDH-ΔBateman; GMP titration, ΔBateman): 1.0
ΔH (AgIMPDH-ΔBateman; GMP titration, ΔBateman): -7.7 kcal/mol
Kd (AgIMPDH [2]): 24 µM
Inhibition (type) (EcIMPDH): Competitive
Ki (EcIMPDH): 1100 ± 100 µM
Inhibition (type) (BsIMPDH): Competitive
Ki (BsIMPDH): 420 ± 70 µM
Inhibition (type) (AgIMPDH [1]): Competitive
Ki (AgIMPDH [1]): 600 ± 100 µM
effect on enzymatic activity of ΔBateman mutant (KM app/KM) (AgIMPDH ΔBateman): inhibited the wild-type and ΔBateman enzymes in a similar manner
n (binding stoichiometry) (AgIMPDH [3]): 0.9
ΔH (AgIMPDH [3]): -9.1 kcal/mol

SMILES: Nc1ncnc2c1ncn2[C@@H]1O[C@H](COP(=O)(O)OP(=O)(O)OP(=O)(O)O)[C@@H](O)[C@H]1O [ATP]
effect on catalytic activity (HsIMPDH1): neither ATP nor Mg-ATP showed a significant effect
effect on catalytic activity (HsIMPDH2): neither ATP nor Mg-ATP showed a significant effect
effect on catalytic activity (EcIMPDH): neither ATP nor Mg-ATP showed a significant effect
effect on catalytic activity (BsIMPDH): neither ATP nor Mg-ATP showed a significant effect
effect on AgIMPDH catalytic activity in vitro (AgIMPDH [1]): did not exert any significant effect

effect on AgIMPDH catalytic activity in vitro (AgIMPDH [1]): did not exert any significant effect
SMILES: Nc1ncnc2c1ncn2[C@@H]1O[C@H](COP(=O)(O)OP(=O)(O)O)[C@@H](O)[C@H]1O [ADP]

SMILES: Nc1ncnc2c1ncn2[C@@H]1O[C@H](COP(=O)(O)OP(=O)([O-])OP(=O)([O-])O)[C@@H](O)[C@H]1O.[Mg+2] [Mg-ATP]
effect on catalytic activity (HsIMPDH1): neither ATP nor Mg-ATP showed a significant effect
effect on catalytic activity (HsIMPDH2): neither ATP nor Mg-ATP showed a significant effect
effect on catalytic activity (EcIMPDH): neither ATP nor Mg-ATP showed a significant effect
effect on catalytic activity (BsIMPDH): neither ATP nor Mg-ATP showed a significant effect
effect on catalytic activity of AgIMPDH (Vmax app/Vmax, KM app/KM) (AgIMPDH [1]; total MgCl2 5 mM): not affected

effect on AgIMPDH catalytic activity in vitro (AgIMPDH [1]): did not exert any significant effect
SMILES: Nc1ncnc2c1ncn2[C@@H]1O[C@H](COP(=O)(O)O)[C@@H](O)[C@H]1O [AMP]

SMILES: Nc1nc2c(ncn2[C@@H]2O[C@H](COP(=O)(O)OP(=O)(O)O)[C@@H](O)[C@H]2O)c(=O)[nH]1 [GDP, guanosine-5′-diphosphate]
Inhibition (type) (HsIMPDH1): Mixed type
Ki (HsIMPDH1): 230 ± 40 µM
α (substrate–inhibitor heterotropic cooperative interaction) (HsIMPDH1): 4.7±0.7
β (fractional activity of the ternary enzyme–substrate-inhibitor complex) (HsIMPDH1): 0.12±0.04
Inhibition (type) (HsIMPDH2): Mixed type
Ki (HsIMPDH2): 610 ± 60 µM
α (substrate–inhibitor heterotropic cooperative interaction) (HsIMPDH2): 6.6±0.8
β (fractional activity of the ternary enzyme–substrate-inhibitor complex) (HsIMPDH2): 0.14±0.05
Inhibition (type) (EcIMPDH): No
Inhibition (type) (BsIMPDH): Mixed type—weak
Ki (BsIMPDH): 2300 ± 400 µM
α (substrate–inhibitor heterotropic cooperative interaction) (BsIMPDH; mixed inhibition model): 2.9±0.4
β (fractional activity of the ternary enzyme–substrate-inhibitor complex) (BsIMPDH; mixed inhibition model): 0.8±0.1
Inhibition (type) (AgIMPDH [1]): Mixed type
α (substrate–inhibitor heterotropic cooperative interaction) (AgIMPDH [1]): 6.5±0.8
β (fractional activity of the ternary enzyme–substrate-inhibitor complex) (AgIMPDH [1]): 0.033±0.005
Ki (AgIMPDH [1]; read-out: Ki): 210 ± 40 µM
effect on enzymatic activity of ΔBateman mutant (KM app/KM) (AgIMPDH ΔBateman): not significantly affected

Source: PMC4660370 (Nature Communications, 2015)
